Measurements reported in article PMC6212767 (2018).
Values belong to the compound of their own block, whether it stands above or below them.

What was measured:
[1] = system: poly[d(G-C)2] (DNA, polymer) GC; experiment: circular dichroism; settings: 25 mM NaCl; 10 mM phosphate, pH 7.0; ~100 μM bp DNA; intercalation
[2] = system: poly[d(G-C)2] (DNA, polymer) GC; experiment: UV melting, 260 nm; settings: per base
[3] = system: poly[d(A-T)2] (DNA, polymer) AT; experiment: circular dichroism; settings: 25 mM NaCl; 10 mM phosphate, pH 7.0; ~100 μM bp DNA; minor groove
[4] = system: poly[d(A-T)2] (DNA, polymer) AT; experiment: ethidium bromide displacement fluorescence; settings: apparent; per base pair; ethidium displaced; slightly lower than with poly[d(G-C)2]
[5] = system: poly[d(G-C)2] (DNA, polymer) GC; experiment: ethidium bromide displacement fluorescence; settings: apparent, per base pair, ethidium displaced, buffer as in cited literature

binding [1]: yes
SMILES: CC[n+]1c(-c2ccccc2)c2cc(N)ccc2c2ccc(N)cc21

ΔTm ([2]; compound ratio for methyl green not stated in material): +5.2 °C
SMILES: CN(C)c1ccc(C(=C2C=CC(=[N+](C)C)C=C2)c2ccc([N+](C)(C)C)cc2)cc1

binding [3]: yes
SMILES: Cn1cc(NC(=O)c2cc(NC(=O)CN=C(N)N)cn2C)cc1C(=O)NCCC(=N)N

binding [4]: yes | Kapp [5]: ~ 1 × 10^7 M(bp)^−1 | ΔTm ([2]; r = 0.1, biphasic, first derivative transition d1, second transition d2 -1.5 ± 1.2 °C): -18.5 ± 1.2 °C
SMILES: [Cl-].[Cl-].[Cl-].[Cl-].[Cu+2].[Cu+2].c1ccc(CN(Cc2ccc3ccc(CN(Cc4ccccn4)Cc4ccccn4)cc3c2)Cc2ccccn2)nc1
